Biological target: potassium channels (Sus scrofa, UniProt F1SR11)
Experiment: Functional potassium channel opening activity in isolated Landrace pig bladder strips (field-stimulated twitch)
Details: for Landrace Pig Bladder Index: ED50 for P1075 divided by ED50 for the test agonist, averaged over tissues; for Landrace Pig Bladder pD2: negative logarithm of ED50; for Emax: pig; for Emax / Landrace Pig Bladder Efficacy (% P1075): maximal efficacy relative to P1075, field stimulation 0.05Hz, 0.5 milli-seconds at 20 volts
Method: The entire bladder was removed and ed into Krebs Ringer bicarbonate solution (composition, mM: NaCl,; dextrose, 1; KCl, 4.7; […] Propranolol (0.004 ed in all of the assays to block […]. The trigonal and dome […]. Strips 3-5 mm wide and 20 mm long were prepared from the cut in a circular fashion. The mucosal layer was removed. One end ationary glass rod and the other to a Grass FT03 transducer at a basal am. Two parallel platinum electrodes were included in the stationary ide field stimulation of 0.05Hz, 0.5 milli-seconds at 20 volts. […] Tissues were allowed to equilibrate for at least 60 minutes and primed with 80 mM KCl. A control concentration response curve (cumulative) was generated for each tissue using the potassium channel opener […] as the control agonist. […] After a 60 minute rinsing period, a concentration response curve (cumulative) was generated for the test agonist in the same fashion as that used for the control agonist […]. The maximal efficacy of each compound (expressed as % relative to […]) is reported. […] J. Physiol. 235, E97 (1980)), and agonist potencies were expressed as pD2 (the negative logarithm). Agonist potencies were also expressed as an index relative to […]. The index was calculated by dividing the ED50 for […] by the ED50 for the test agonist in a given tissue. Each tissue was used for only one test agonist, and the indices obtained from each tissue were averaged to provide an average index of potency.

| Compound | Landrace Pig Bladder Index | Landrace Pig Bladder pD2 | Emax [%] | Landrace Pig Bladder Efficacy (% P1075) |
| --- | --- | --- | --- | --- |
| O=C1CCCC2=C1C(c1ccc3nonc3c1)C1=C(CCS1(=O)=O)N2 (single isomer, unassigned; (+)) [Example 97, (+)-9-(2. 1,3-benzoxadiazol-5-yl)-2,3,5,6,7,9-hexahydrothieno[3.2-b]quinolin-8(4H)-one, 11-dioxide] | 0.059 | 5.7 | 100 |  |
| N#Cc1cccc(C2C3=C(CCC3=O)NC3=C2S(=O)(=O)CC3)c1 (single isomer, unassigned; (+)) [Example 164] | 0.0071 | 5.0 | 94 |  |
| O=C1CCCC2=C1C(c1ccc(F)c(Br)c1)C1=C(CCCS1(=O)=O)N2 (single isomer, unassigned; (-)) [Example 94, (−)-10-(3-bromo-4-fluorophenyl)-3,4,6,7,8,10-hexahydro-2H-thiopyrano[3,2-b]quinolin-9(5H)-one 1,1-dioxide] | 0.31 | 6.4 |  | 94 |
| O=C1CCCC2=C1C(c1ccc(Cl)c(Cl)c1)C1=C(CCS1(=O)=O)N2 (single isomer, unassigned; (-)) [Example 96, (−)-9-(3,4-dichlorophenyl)-2,3,5,6,7,9-hexahydrothieno[3,2-b]guinolin-8(4H)-one, 1,1-dioxide] | 0.37 | 6.5 |  | 97 |
| O=C1CCCC2=C1C(c1ccc3nonc3c1)C1=C(CCS1(=O)=O)N2 (single isomer, unassigned; (-)) [Example 98, (−)-9-(2.1 .3-benzoxadiazol-5-yl)-2,3.5,6.7,9-hexahydrothieno[3.2-b]guinolin-8(4H)-one, 1,1-dioxide] | 0.057 | 5.6 |  | 100 |
| N#Cc1cccc(C2C3=C(CCCC3=O)NC3=C2S(=O)(=O)CC3)c1 (single isomer, unassigned; (-)) [Example 114, (−)-9-(3-cyanophenyl)-2,3,5,6,7,9-hexahydrothieno[3,2-b]quinolin-8(4H)-one, 1,1-dioxide] | 0.014 | 4.9 | 97 |  |
| O=C1CCCC2=C1C(c1ccc(Cl)c(C(F)(F)F)c1)C1=C(CCS1(=O)=O)N2 (single isomer, unassigned; (-)) [Example 172, (−)-9-[4-chloro-3-(trifluoromethyl)vhenyl]-2,3,5,6,79-hexahydrothieno[3,2-b]quinolin-8(4H)-one, 1,1-dioxide] | 0.12 | 6.2 | 100 |  |
| O=C1CCCC2=C1C(c1ccc(Cl)c(Cl)c1)C1=C(CCCS1(=O)=O)N2 (stereo not drawn) [Example 2] | 0.15 | 6.2 | 96 |  |
| O=C1CCCC2=C1C(c1ccc(F)c(Cl)c1)C1=C(CCCS1(=O)=O)N2 (stereo not drawn) [Example 3, 10-(3-chloro-4-fluorophenyl)-3,4,6,7,8,10-hexahydro-2H-thiopyrano [3,2-b]quinolin-9(5H)-one, 1,1-dioxide] | 0.11 | 6.0 | 85 |  |
| O=C1CCCC2=C1C(c1ccc(F)c(Br)c1)C1=C(CCCS1(=O)=O)N2 (stereo not drawn) [Example 4, 10-(3-bromo-4-fluorophenyl)-3,4,6,7,8,10-hexahydro-2H-thiopyrano [3,2-b]quinolin-9(5H)-one, 1,1-dioxide] | 0.18 | 6.2 | 93 |  |
| CC1=C(S(C)(=O)=O)C(c2cccc([N+](=O)[O-])c2)C2=C(CCCC2=O)N1 (stereo not drawn) [Example 26, 4,6,7,8-tetrahydro-2-methyl-3-(methylsulfonyl)-4-(3-nitrophenyl)-5(1H)-quinolinone] | 0.0099 | 4.5 | 78 |  |
| N#Cc1cccc(C2C3=C(CCCC3=O)NC3=C2S(=O)(=O)CC3)c1 (stereo not drawn) [Example 30, 9-(3-cyanophenyl)-2,3,5,6,7,9-hexahydrothieno [3.2-b]quinolin-8(4H)-one, 1,1-dioxide] | 0.018 | 5.5 | 99 |  |
| CC(=O)C1=C(C)NC2=C(C1c1ccc(Cl)c([N+](=O)[O-])c1)S(=O)(=O)CCC2 (stereo not drawn) [Example 36] | 0.040 | 5.5 | 97 |  |

Continued, values first:

| Landrace Pig Bladder Index | Landrace Pig Bladder pD2 | Emax [%] | Landrace Pig Bladder Efficacy (% P1075) | Compound |
| --- | --- | --- | --- | --- |
| 0.12 | 5.6 | 84 |  | O=C1CCCC2=C1C(c1ccc(Cl)c(Cl)c1)C1=C(CCS1(=O)=O)N2 (single isomer, unassigned; (+)) [Example 95, (+)-9-(3,4-dichlorophenyl)-2,3,5,6,7,9-hexahydrothieno[3,2-b]quinolin-8(4H)-one, 1,1-dioxide] |
| 0.18 | 6.2 | 100 |  | O=C1CCCC2=C1C(c1ccc(Cl)c([N+](=O)[O-])c1)C1=C(CCS1(=O)=O)N2 (single isomer, unassigned; (+)) [Example 99, (+)-9-(4-chloro-3-nitrophenyl)-2,3,5,6,7,9-hexahydrothieno[3.2-b]guinolin-8(4H)-one, 1,1-dioxide] |
| 0.069 | 6.5 | 100 |  | O=C1CCC2=C1C(c1ccc(F)c(Br)c1)C1=C(CCS1(=O)=O)N2 (single isomer, unassigned; (-)) [Example 86] |
| 0.44 | 6.5 |  | 100 | O=C1CCC2=C1C(c1ccc(F)c(Br)c1)C1=C(CCCS1(=O)=O)N2 (single isomer, unassigned; (-)) [Example 92] |
| 0.17 | 6.4 |  | 100 | O=C1CCCC2=C1C(c1ccc(Cl)c([N+](=O)[O-])c1)C1=C(CCS1(=O)=O)N2 (single isomer, unassigned; (-)) [Example 100, (−)-9-(4-chloro-3-nitrophenyl)-2,3,5,6,7,9-hexahydrothieno[3,2-b]quinolin-8(4H)-one, 1,1-dioxide] |
| 0.17 | 6.7 |  | 100 | O=C1CCCC2=C1C(c1ccc(F)c(Cl)c1)C1=C(CCS1(=O)=O)N2 (single isomer, unassigned; (-)) [Example 110, (−)-9-(3-chloro-4-fluorophenyl)-2,3,5,6,7,9-hexahydrothieno[3.2-b]quinolin-8(4H)-one, 1,1-dioxide] |
| 0.13 | 6.0 | 100 |  | O=C1CCCC2=C1C(c1ccc(F)c(C(F)(F)F)c1)C1=C(CCS1(=O)=O)N2 (single isomer, unassigned; (-)) [Example 139] |
| 0.022 | 5.5 | 100 |  | O=C1CCCC2=C1C(c1cccc([N+](=O)[O-])c1)C1=C(CCCS1(=O)=O)N2 (stereo not drawn) [Example 1, 3,4,6,7,8,10-hexahydro-10-(3-nitrophenyl)-2H-thiopyrano[3,2-b]quinolin-9(5H)-one, 1,1-dioxide] |
| 0.0076 | 4.8 | 96 |  | N#Cc1cccc(C2C3=C(CCCC3=O)NC3=C2S(=O)(=O)CCC3)c1 (stereo not drawn) [Example 5, 10-(3-cyanophenyl)-3,4,6,7,8,10-hexahydro-2H-thiopyrano [3,2-b]quinolin-9(5H)-one, 1,1-dioxide] |
| 0.011 | 5.0 | 100 |  | O=C1CCCC2=C1C(c1cccc(Cl)c1)C1=C(CCCS1(=O)=O)N2 (stereo not drawn) [Example 16, 10-(3-chlorophenyl)-3,4,6,7,8,10-hexahydro-2H-thiopyrano [3.2-b]quinolin-9(5H)-one, 1,1-dioxide] |
| 0.0069 | 4.5 | 77 |  | CC1=C(S(C)(=O)=O)C(c2cc(F)c(F)c(F)c2)C2=C(CCCC2=O)N1 (stereo not drawn) [Example 22, 4-(3,4,5-trifluorophenyl)-4,6,7,8-tetrahydro-2-methyl-3-(methylsulfonyl)-5(1H)-quinolinone] |
| 0.0053 | 4.4 | 81 |  | CC1=C(S(C)(=O)=O)C(c2ccc(C)c([N+](=O)[O-])c2)C2=C(CCCC2=O)N1 (stereo not drawn) [Example 23, 4,6,7,8-tetrahydro-2-methyl-4-(4-methyl-3-nitrophenyl)-3-(methylsulfonyl)-5(1H)-quinolinone] |
| 0.038 | 5.4 | 88 |  | CC1=C(S(C)(=O)=O)C(c2ccc(F)c(Br)c2)C2=C(CCCC2=O)N1 (stereo not drawn) [Example 25, 4-(3-bromo-4-fluorophenyl)-4,6,7,8-tetrahydro-2-methyl-3-(methylsulfonyl)-5(1H)-guinolinone] |
| 0.32 | 6.8 | 100 |  | O=C1CCCC2=C1C(c1ccc(Cl)c([N+](=O)[O-])c1)C1=C(CCS1(=O)=O)N2 (stereo not drawn) [Example 34, 9-(4-chloro-3-nitrophenyl)-2,3,5,6,7,9-hexahydrothieno [3,2-b]quinolin-8(4H)-one, 1,1-dioxide] |
